The values below come from article PMC12006963, “Application of Deuterium in an M1 Positive Allosteric Modulator Back-Up Program: The Discovery of VU6045422” (ACS Chemical Neuroscience, 2025).

For data set [1], the system named is hM2-5. As to the kind of experiment: Muscarinic selectivity, human M2-5 calcium mobilization. It is filed as cell-based. Here is the method:
Procedures for Biological Experiments
Calcium mobilization assays:
All functional cell-based assays were performed in stable Chinese Hamster Ovary (CHO) cell lines constitutively expressing human M5 or human M1 receptors. For full muscarinic selectivity, CHO cells expressing human M3, human M2 plus Gqi5 or human M4 plus Gqi5 were used. Cells were plated at 15,000 cells per 20 µL per well in black 384-well, TC-treated, clear-bottomed plates (Greiner) in Ham’s F12 medium supplemented with 10% FBS and 20 mM HEPES. Cells were incubated overnight at 37 °C under 5% CO2. […] The compound plate, cell plate, and plates containing EC20 and EC80 acetylcholine concentrations were placed in a Hamamatsu FDSS 6000 or 7000 kinetic imaging plate reader equipped to measure Ex480/Em540 fluorescence. […] After 2 seconds of collecting baseline fluorescence, 20 µL of the compound solutions were added to the cell plate. […] The fluorescence signal was collected for a total of 300 seconds. […] Data were imported and analyzed in Dotmatics Informatics software. by normalizing all data in the individual kinetic traces to the initial fluorescence read. The magnitude of each agonist addition was then determined and normalized to the average maximum response. […] The IC50 determined using the EC80 of acetylcholine is the value reported. […]

Data set [2] relates to recognition memory. In words: Novel object recognition (NOR) test. It is filed as in vivo, rat. To be noted: PO; for minimum effective dose (MED) in NOR: male Sprague-Dawley rats, 3 given 2 h, 5 given 1 h before exposure, memory assessed 24 h later; for effect on recognition memory in NOR: rats, 3 at 1, 3, 10 mg/kg, 5 at 0.3, 1, 3 mg/kg. How it is done: Figure 4 Novel object recognition (NOR) test in rats with M1 PAMs 3 and 5. […] Minimum effective dose (MED) is 10 mg/kg. […] Minimum effective dose (MED) is 1 mg/kg. N = 13–18/group of male Sprague-Dawley rats. Analysis of variance (ANOVA) *p < 0.05; **p < 0.01 Dunnett posthoc test.
Rats were habituated for 10 min for 2 consecutive days in an empty novel object recognition (NOR) arena consisting of dark-colored plexiglass box (40 × 64 × 33 cm3). On day 3 rats were administered vehicle, M1 PAM 3 (1-10 mg/kg, p.o.., 10 mL/kg, n = 13-18), or M 1 PAM 5 (0.3-3 mg/kg, p.o.., 10 mL/kg, n = 16-18) and returned to their home cage for 60 min (M 1 PAM 5) or 2 hr (M1 PAM 3. Rats were then placed in the NOR arena containing two identical objects for 10 min. Following the exposure period, rats were placed back into their home cages for 24 h. The rats were then returned to the arena in which one of the previously exposed (familiar) objects was replaced by a novel object and were video recorded for 5 min while they explored the two objects.
Time spent exploring each object was scored by an observer blinded to the experimental conditions and the recognition index was calculated as [(time spent exploring novel object) – (time spent exploring familiar object)]/total time exploring objects. […]
C18, 2.1 x 30 mm, 2.6 um. Gradient conditions: 7% to 95% CH3CN in H2O (0.1% TFA) over 1.6

The target in data set [3] is Opiate κ (OP2, KOP) (Homo sapiens, UniProt P41145). As to the kind of experiment: Eurofins radioligand binding.
Data set [4] has as its target hERG potassium channel (Homo sapiens, UniProt Q12809). As to the kind of experiment: Eurofins radioligand binding.
For data set [5], the system named is Purinergic P2Y, Non-Selective. In words: Eurofins radioligand binding. Further details: species or system Rat.
Data set [6] concerns the target Leukotriene, Cysteinyl CysLT1 (Homo sapiens, UniProt Q9Y271). As to the kind of experiment: Eurofins radioligand binding.
Data set [7] has as its target Opiate δ1 (OP1, DOP) (Homo sapiens, UniProt P41143). As to the kind of experiment: Eurofins radioligand binding.
The target of data set [8] is Interleukin IL-1 R1 (Homo sapiens, UniProt P14778). As to the kind of experiment: Eurofins radioligand binding.
Data set [9] deals with Estrogen ERα (Homo sapiens, UniProt P03372). In words: Eurofins radioligand binding.
Data set [10] deals with CYP 2D6 (Homo sapiens, UniProt P10635). As to the kind of experiment: CYP isoform contribution to metabolism: 2D6. It is filed as in vitro ADME.
The target of data set [11] is Endothelin ETA (Homo sapiens, UniProt P25101). As to the kind of experiment: Eurofins radioligand binding.
In data set [12] the test system is Phorbol Ester. In words: Eurofins radioligand binding. Further details: species or system Mouse.
The subject of data set [13] is CYP. In words: CYP induction. It is filed as in vitro ADME. As to conditions: in words.

Opiate δ1 (OP1, DOP), sequence (P41143 whole entry): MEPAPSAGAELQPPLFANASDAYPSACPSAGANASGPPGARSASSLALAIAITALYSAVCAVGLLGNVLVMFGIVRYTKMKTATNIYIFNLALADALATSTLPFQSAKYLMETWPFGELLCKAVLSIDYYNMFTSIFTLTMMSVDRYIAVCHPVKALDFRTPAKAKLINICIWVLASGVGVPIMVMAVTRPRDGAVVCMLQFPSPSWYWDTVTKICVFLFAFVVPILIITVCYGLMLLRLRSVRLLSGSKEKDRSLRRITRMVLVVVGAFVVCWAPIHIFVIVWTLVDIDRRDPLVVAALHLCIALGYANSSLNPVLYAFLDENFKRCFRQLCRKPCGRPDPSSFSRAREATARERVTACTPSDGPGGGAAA
CYP 2D6, sequence (P10635 whole entry, canonical isoform): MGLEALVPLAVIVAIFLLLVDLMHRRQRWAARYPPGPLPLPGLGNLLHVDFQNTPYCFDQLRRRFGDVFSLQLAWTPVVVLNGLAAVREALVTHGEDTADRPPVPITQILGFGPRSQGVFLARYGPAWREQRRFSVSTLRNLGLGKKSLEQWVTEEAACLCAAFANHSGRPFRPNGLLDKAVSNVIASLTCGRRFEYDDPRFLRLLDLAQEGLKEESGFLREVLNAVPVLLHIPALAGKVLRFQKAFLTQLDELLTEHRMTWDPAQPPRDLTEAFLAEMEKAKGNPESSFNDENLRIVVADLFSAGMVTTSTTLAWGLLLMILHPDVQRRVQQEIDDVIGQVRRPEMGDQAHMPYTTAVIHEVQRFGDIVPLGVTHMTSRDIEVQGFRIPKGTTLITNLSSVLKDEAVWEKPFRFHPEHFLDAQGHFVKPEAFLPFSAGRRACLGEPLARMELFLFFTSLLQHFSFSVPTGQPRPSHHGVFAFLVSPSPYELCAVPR
Estrogen ERα, sequence (P03372 whole entry, canonical isoform): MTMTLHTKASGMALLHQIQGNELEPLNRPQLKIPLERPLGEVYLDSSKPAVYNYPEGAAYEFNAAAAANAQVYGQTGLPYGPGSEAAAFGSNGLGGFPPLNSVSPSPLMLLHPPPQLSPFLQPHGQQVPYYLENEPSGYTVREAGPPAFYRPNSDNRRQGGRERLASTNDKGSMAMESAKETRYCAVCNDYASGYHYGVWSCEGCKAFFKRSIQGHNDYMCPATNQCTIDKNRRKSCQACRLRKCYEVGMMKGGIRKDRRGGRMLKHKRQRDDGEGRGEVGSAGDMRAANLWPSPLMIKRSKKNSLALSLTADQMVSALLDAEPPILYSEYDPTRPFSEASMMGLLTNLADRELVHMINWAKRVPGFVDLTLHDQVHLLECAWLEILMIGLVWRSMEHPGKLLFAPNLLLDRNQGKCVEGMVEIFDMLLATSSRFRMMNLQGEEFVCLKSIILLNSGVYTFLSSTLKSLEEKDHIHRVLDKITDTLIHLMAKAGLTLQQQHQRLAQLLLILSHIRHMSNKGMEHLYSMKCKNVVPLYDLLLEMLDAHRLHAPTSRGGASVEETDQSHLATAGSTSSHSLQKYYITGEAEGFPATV
Opiate κ (OP2, KOP), sequence (P41145 whole entry): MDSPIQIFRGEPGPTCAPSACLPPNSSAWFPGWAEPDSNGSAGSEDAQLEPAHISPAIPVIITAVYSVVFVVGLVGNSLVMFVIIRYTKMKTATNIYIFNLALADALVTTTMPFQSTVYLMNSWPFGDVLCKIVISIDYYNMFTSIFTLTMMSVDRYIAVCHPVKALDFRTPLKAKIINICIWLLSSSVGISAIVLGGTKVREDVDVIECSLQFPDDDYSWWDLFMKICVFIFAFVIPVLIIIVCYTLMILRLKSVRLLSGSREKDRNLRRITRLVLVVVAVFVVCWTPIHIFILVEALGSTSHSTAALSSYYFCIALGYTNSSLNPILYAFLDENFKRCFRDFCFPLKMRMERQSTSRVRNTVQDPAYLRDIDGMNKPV
hERG potassium channel, sequence (Q12809 whole entry): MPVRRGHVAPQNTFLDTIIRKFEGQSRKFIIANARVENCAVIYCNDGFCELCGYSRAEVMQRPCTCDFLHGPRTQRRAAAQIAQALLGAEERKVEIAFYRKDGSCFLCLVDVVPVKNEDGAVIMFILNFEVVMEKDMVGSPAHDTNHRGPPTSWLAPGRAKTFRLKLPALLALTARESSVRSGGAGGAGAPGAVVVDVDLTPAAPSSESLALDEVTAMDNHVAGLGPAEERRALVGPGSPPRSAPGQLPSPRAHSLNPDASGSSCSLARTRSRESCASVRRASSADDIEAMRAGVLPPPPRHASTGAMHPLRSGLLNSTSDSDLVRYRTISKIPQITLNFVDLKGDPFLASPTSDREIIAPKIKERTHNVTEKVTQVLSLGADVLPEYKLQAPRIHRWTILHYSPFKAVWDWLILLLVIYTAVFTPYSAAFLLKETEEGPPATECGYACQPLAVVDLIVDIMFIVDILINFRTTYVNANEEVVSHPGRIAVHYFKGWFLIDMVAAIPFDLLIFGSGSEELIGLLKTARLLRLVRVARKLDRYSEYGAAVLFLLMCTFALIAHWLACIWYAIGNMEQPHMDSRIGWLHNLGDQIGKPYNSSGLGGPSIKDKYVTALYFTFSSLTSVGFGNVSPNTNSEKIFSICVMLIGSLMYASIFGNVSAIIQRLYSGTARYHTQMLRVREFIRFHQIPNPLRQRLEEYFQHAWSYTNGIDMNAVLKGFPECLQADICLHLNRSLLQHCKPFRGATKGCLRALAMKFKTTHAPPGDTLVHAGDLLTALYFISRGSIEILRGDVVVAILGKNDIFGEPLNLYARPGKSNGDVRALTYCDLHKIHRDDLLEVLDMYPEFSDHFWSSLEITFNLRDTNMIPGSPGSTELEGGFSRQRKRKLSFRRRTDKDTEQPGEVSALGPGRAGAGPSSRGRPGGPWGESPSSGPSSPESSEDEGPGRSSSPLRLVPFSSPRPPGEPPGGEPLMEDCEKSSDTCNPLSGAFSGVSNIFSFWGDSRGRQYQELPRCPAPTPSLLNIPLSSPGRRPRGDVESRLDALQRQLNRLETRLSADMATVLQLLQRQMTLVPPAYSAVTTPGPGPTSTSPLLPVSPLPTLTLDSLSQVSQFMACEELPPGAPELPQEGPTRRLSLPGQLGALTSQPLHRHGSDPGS
Interleukin IL-1 R1, sequence (P14778 18-569): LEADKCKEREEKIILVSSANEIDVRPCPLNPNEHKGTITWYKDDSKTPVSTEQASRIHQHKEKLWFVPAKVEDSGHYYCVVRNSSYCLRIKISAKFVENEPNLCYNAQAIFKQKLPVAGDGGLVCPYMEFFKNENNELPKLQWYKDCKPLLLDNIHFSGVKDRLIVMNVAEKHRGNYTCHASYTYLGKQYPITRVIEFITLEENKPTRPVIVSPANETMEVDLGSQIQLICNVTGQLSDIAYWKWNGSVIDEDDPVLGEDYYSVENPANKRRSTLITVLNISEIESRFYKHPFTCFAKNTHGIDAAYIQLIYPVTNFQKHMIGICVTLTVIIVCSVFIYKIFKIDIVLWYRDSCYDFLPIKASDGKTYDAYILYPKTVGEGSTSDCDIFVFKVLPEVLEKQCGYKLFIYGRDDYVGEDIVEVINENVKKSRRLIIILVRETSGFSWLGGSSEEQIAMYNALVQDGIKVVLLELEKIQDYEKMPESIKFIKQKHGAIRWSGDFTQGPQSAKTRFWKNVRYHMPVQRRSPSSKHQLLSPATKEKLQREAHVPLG
Leukotriene, Cysteinyl CysLT1, sequence (Q9Y271 whole entry): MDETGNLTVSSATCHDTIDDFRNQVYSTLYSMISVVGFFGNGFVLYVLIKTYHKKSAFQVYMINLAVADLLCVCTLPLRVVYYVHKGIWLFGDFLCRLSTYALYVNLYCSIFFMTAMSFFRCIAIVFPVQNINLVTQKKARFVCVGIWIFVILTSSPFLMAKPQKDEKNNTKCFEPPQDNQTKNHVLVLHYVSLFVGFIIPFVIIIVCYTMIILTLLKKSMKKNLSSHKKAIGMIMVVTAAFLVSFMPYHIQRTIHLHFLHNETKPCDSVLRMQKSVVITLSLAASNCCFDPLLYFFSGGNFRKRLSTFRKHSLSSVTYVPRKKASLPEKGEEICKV
Endothelin ETA, sequence (P25101 21-427): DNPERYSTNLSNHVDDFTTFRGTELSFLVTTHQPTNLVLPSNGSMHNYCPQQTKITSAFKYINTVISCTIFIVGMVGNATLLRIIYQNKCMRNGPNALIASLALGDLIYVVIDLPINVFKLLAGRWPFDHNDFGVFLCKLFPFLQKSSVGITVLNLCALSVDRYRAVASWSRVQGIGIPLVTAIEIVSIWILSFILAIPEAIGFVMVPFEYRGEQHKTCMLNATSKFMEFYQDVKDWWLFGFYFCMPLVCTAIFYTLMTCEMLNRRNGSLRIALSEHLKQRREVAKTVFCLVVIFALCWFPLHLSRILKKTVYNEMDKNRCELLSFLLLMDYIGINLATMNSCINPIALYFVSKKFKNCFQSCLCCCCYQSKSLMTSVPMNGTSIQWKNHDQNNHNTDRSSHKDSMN

Take `[2H]C1([2H])c2ncccc2C(=O)N1Cc1c(F)cc(-c2cccc3nn(C)cc23)cc1F` [compound 3]: in data set [1], the half-maximal effective concentration (EC50) is over 30 µM. In addition, in data set [2], the “minimum effective dose (MED) in NOR” value worked out at 10 mg/kg and the “effect on recognition memory in NOR” value is given as “dose-dependently enhanced the recognition memory”.
As to `[2H]C1([2H])c2ncccc2C(=O)N1Cc1c(F)cc(-c2cccc3nn(C([2H])([2H])[2H])cc23)cc1F` [compound 5], the EC50 in data set [1] was over 30 µM. The inhibition at 10 µM in data set [3] is 9%; in data set [4], 9%; in data set [6], -9%; in data set [7], 1%; in data set [8], 8%; in [9], 10%. Moreover, in data set [11], the inhibition at 10 µM was -4%. For the same compound, the figures for the “% Inhibition at 10 µM” value in data set [5] and in data set [12] were 9% and 5%, respectively. Moreover, the “minimum effective dose (MED) in NOR” value in [2] was found to be 1 mg/kg. For the same compound, in data set [2], the “effect on recognition memory in NOR” value was “dose-dependently enhanced recognition memory”. Moreover, the “contribution of CYP 2D6 to metabolism” value in data set [10] came to 1.6%. The CYP induction liability result in data set [13] is reported as “no time-dependent CYP inhibition or CYP induction liabilities”.
